From publication PMC4243815, “A non-pediocin low molecular weight antimicrobial peptide produced by Pediococcus pentosaceus strain IE-3 shows increased activity under reducing environment” (BMC Microbiology, 2014)
In brackets after ≈: the same amount, converted by molar mass. Ends that are not written are not given here. Peptide text beside a SMILES is read from it.

Assays:
[1] = Hydrogen peroxide induced oxidation, activity by well diffusion assay; type: physicochemical; details: 100 mM hydrogen peroxide, 1 h, room temperature
Method: (§1) The sensitivity of the bacteriocin towards different pH, temperatures and proteases was evaluated using purified bacteriocin. The purified peptide was incubated between pH values 2.0-10.0 and temperatures including 80, 100°C for 30 min and 120°C for 15 min. Antimicrobial peptide (200 μg) was incubated with various proteolytic enzymes such as trypsin (10 μg/ml, Sigma, USA), chymotrypsin (5 μg/ml, Sigma, USA) and proteinase K (5 units, Sigma, USA) in 100 mM Tris HCl buffer pH 8.0 (with 10 mM CaCl2) at 30°C for 6 h to determine their effect. The enzyme activity was terminated by heating the reaction mix at 80°C and subsequently used for antimicrobial activity assay. To test the effect of denaturant like DTT (BioRad, USA) on antimicrobial activity of the peptide, it was incubated with 50 to 150 mM DTT at room temperature for 1 h and used for growth inhibition assay. Hydrogen peroxide induced oxidation was tested by incubating the purified peptide with 100 mM concentration of hydrogen peroxide (Merck, India) for 1 h at room temperature [36] and activity was tested by well diffusion assay.

[2] = tested on: M. luteus; type: cell-based, Micrococcus luteus; details: 16 h
Method: The MIC was determined for various indicator strains using a microtiter plate dilution assay as described earlier. Cell growth was measured by observing OD at 600 nm at 16 h time interval using microtiter plate reader (Multiskan spectrum, Thermo, USA). The protein concentration was determined by BCA protein concentration estimation kit (Thermo, USA) following instructions of the manufacturer. For MIC determination of DTT treated peptide, the DTT solution was filter sterilized and final 100 mM concentration was used to treat peptide.

[3] = Effect of pH on antimicrobial activity of the purified peptide; type: physicochemical
Method: as §1

[4] = tested on: trypsin; test: Effect of proteolytic enzymes on antimicrobial activity; details: 200 μg peptide; trypsin 10 μg/ml; 100 mM Tris HCl pH 8.0 with 10 mM CaCl2; 30°C, 6 h; read-out antimicrobial assay
Method: The sensitivity of the bacteriocin towards different pH, temperatures and proteases was evaluated using purified bacteriocin. The purified peptide was incubated between pH values 2.0-10.0 and temperatures including 80, 100°C for 30 min and 120°C for 15 min. Antimicrobial peptide (200 μg) was incubated with various proteolytic enzymes such as trypsin (10 μg/ml, Sigma, USA), chymotrypsin (5 μg/ml, Sigma, USA) and proteinase K (5 units, Sigma, USA) in 100 mM Tris HCl buffer pH 8.0 (with 10 mM CaCl2) at 30°C for 6 h to determine their effect. The enzyme activity was terminated by heating the reaction mix at 80°C and subsequently used for antimicrobial activity assay. To test the effect of denaturant like DTT (BioRad, USA) on antimicrobial activity of the peptide, it was incubated with 50 to 150 mM DTT at room temperature for 1 h and used for growth inhibition assay. Hydrogen peroxide induced oxidation was tested by incubating the purified peptide with 100 mM concentration of hydrogen peroxide (Merck, India) for 1 h at room temperature and activity was tested by well diffusion assay.

[5] = Storage stability of the purified peptide; type: physicochemical
[6] = tested on: amylase; test: Effect of amylase treatment on antimicrobial activity
[7] = target: T1, proteinase K (Parengyodontium album, UniProt P06873); test: Effect of proteolytic enzymes on antimicrobial activity; details: 200 μg peptide; proteinase K 5 units; 100 mM Tris HCl pH 8.0 with 10 mM CaCl2; 30°C, 6 h; read-out antimicrobial assay
T1 construct: purchased Sigma, USA
Method: as §1

[8] = Effect of DTT on antimicrobial activity of the purified peptide; details: 1 h/RT, growth inhibition assay
Method: as §1

[9] = tested on: pepsin, trypsin, chymotrypsin, proteinase K and pronase E; details: cited from earlier work
From the text: Bacteria produces different kinds of antimicrobial substances including ribosomally synthesized bacteriocins and non-ribosomally synthesized antibiotics or lipopeptides as a part of their defense strategies in complex environments such as fermented foods and the human gut. Members belonging to the lactic acid bacteria (LAB) family with ability to produce bacteriocins are frequently found in these environments. LAB strains are recognized as GRAS (Generally Regarded As Safe) microorganisms and have been studied in detail for biotechnological applications together with the bacteriocins prod ...

T1 sequence (P06873 106-384): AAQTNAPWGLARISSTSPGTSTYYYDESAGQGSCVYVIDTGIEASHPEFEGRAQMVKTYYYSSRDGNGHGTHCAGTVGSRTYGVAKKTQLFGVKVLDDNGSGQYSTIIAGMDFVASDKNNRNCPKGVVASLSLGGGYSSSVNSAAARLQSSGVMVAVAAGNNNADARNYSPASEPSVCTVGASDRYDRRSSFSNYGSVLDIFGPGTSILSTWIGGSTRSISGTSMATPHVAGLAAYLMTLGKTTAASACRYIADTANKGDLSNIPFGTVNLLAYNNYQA

With `CC(C)C[C@H](NC(=O)[C@H](Cc1c[nH]cn1)NC(=O)[C@@H](NC(=O)[C@H](CC(C)C)NC(=O)[C@H](CS)NC(=O)CNC(=O)[C@H](CCCNC(=N)N)NC(=O)[C@@H](NC(=O)[C@H](CS)NC(=O)[C@H](CO)NC(=O)[C@H](Cc1ccccc1)NC(=O)[C@@H]1CCCN1C(=O)[C@@H](NC(=O)[C@@H]1CCCN1C(=O)[C@H](C)N)C(C)C)[C@@H](C)O)[C@@H](C)O)C(=O)N[C@H](C(=O)O)C(C)C` [LMW peptide] (H-APVPFSCTRGCLTHLV-OH; N-terminus and C-terminus assumed) the “Antimicrobial activity after incubation with H2O2” value [1] was “did not show any antimicrobial activity”, the MIC [2] was 6.3 µM (≈ 10.7 µg/mL) and the “Residual activity (%)” value ([3]; pH 2, Overnight/ RT) was 100.0%. For the same compound, the “Residual activity (%)” value ([3]; pH 3, Overnight/ RT) was 100.0%, the “Residual activity (%)” value ([3]; pH 4, Overnight/ RT) was 100.0% and the “Residual activity (%)” value ([3]; pH 5, Overnight/ RT) was 100.0%. The “Residual activity (%)” value ([3]; pH 6, Overnight/ RT) was 87.5%, the “Residual activity (%)” value ([3]; pH 7, Overnight/ RT) was 75.0% and the “Residual activity (%)” value ([3]; pH 8, Overnight/ RT) was 37.5%. The “Residual activity (%)” value ([3]; pH 9, Overnight/ RT) was 25.0%, the “Residual activity (%)” value ([3]; pH 10, Overnight/ RT) was 12.5% and the “Antimicrobial activity after incubation with proteolytic enzyme” value [4] was “no reduction in activity”. The “Antimicrobial activity during storage” value ([5]; purified peptide stored at room temperature, within 24 h) was “significant reduction in antimicrobial activity”, the “Antimicrobial activity during storage” value ([5]; purified peptide stored at −20°C) was “stable” and the “Antimicrobial activity upon treatment with amylase” value [6] was “Stable activity”. The “Antimicrobial activity after incubation with proteolytic enzyme” value [7] was “no reduction in activity”, the “Residual activity (%)” value ([8]; DTT 0 mM) was 100.0% and the “Residual activity (%)” value ([8]; DTT 50 mM) was 125.0%. For the same compound, the “Residual activity (%)” value ([8]; DTT 100 mM) was 143.7% and the “Residual activity (%)” value ([8]; DTT 150 mM) was 143.7%.
For “pediocin PA-1: well-studied 4.6 kDa class IIa antimicrobial peptide (bacteriocin) from Pediococcus sp. (KYYGNGVTCGKHSCSVDWGKATTCIINNGAMAWATGGHQGNHKC; ends and bridges not checked; cysteine pairing not given here; UniProt P29430 19-62, looked up)”, the “Effect of proteases on activity” value [9] is listed as “inactivated”.
